The source of these data is US8980224B2, “Method of cardiac imaging” (GE Healthcare AS, priority 2004, dated 2015).

Data set [1] in a line: 13C polarisation obtained by the DNP method, assessed with 13C-NMR. Format: physicochemical. The settings on record: 1.2 K, 3.35 T. As for the experimental part: A 20 mM solution was prepared by dissolving 5.0 mg of the radical of Example 1 in ^13CI-pyruvic acid (164 μl). The sample was mixed to homogeneity and an aliquot of the solution (41 mg) was placed in a sample cup and inserted in the DNP polariser.
The sample was polarised under DNP conditions at 1.2 K in a 3.35 T magnetic field under irradiation with microwave (93.950 GHz). After 2 hours the polarisation was stopped and the sample was dissolved using a dissolution device according to WO-A-02/37132 in an aqueous solution of sodium hydroxide and tris(hydroxymethyl)aminomethane (TRIS) to provide a neutral solution of hyperpolarised sodium ^13C1-pyruvate. The dissolved sample was rapidly analysed with ^13C-NMR to assess the polarisation and a 19.0% ^13C polarisation was obtained.
A 15 mM solution was prepared by dissolving the radical of Example 1 (209.1 mg) in a mixture of ^13C1-pyruvic acid (553 mg) and unlabelled pyruvic acid (10.505 g). The sample was mixed to homogeneity and an aliquot of the solution (2.015 g) was placed in a sample cup and inserted in the DNP polariser.
The sample was polarised under DNP conditions at 1.2 K in a 3.35 T magnetic field under irradiation with microwave (93.950 GHz). […] The filtered solution was rapidly analysed with ^13C-NMR to assess the polarisation, 16.5% ^13C polarisation was obtained. The residual radical concentration was subsequently analysed with a UV spectrophotometer meter at 469 nm and was determined to be below the detection limit of 0.1 μM.
A 20 mM solution was prepared by dissolving Tris(8-carboxy-2,2,6,6-tetra(hydroxyethoxy)methyl-benzo[1,2-d:4,5-d′]-bis-(1,3)-dithiole-4-yl)methyl sodium salt in ^13C1-pyruvic acid (83.1 mg). […] The DNP enhancement was calculated from a measurement of the thermal equilibrium ^13C-NMR signal and the enhanced NMR signal. […]

The test system of another data set is myocardial tissue. The data set can be described thus: Cardiac 13C-MR imaging in the pig before and after occlusion of the circumflexa. In kind it is in vivo. Particulars: 0.22 mmol/kg i.v., imaging 30 s after start of injection. As for the experimental part: The pig (25 kg) was anaesthetised using a cocktail containing isotonic NaCl (26 vol %), Ketalar (50 mg/ml) (Pfizer AB) (42 vol %), Norcuron (10 mg+5 ml sterile water) (Organon) (21 vol %) and Midazolam (5 mg/ml) (Pharma Hameln) (11% vol) administered using an infusion pump at a rate of 0.6 ml/min.
After the first injection with ^13C-pyruvate the pig was removed from the MR scanner. Under X-ray guidance, a balloon catheter was inserted into the arteria coronaria sinistra and the circumflexa was blocked for a 15 minute period. During the whole operation ECG and blood pressure were measured. 90 Minutes after the end of the ischemic period, the pig was imaged again and ^13C-images were acquired from (about) the same location as were the control measurement was carried out.
The pig was positioned in a pig MR coil (Rapid Biomedical, Germany) and imaged using a standard clinical cardiac proton MR imaging sequence library to get anatomical information and to get the short axis view orientation of the myocardium (see proton reference image in the figures to see an example of short axis view).
Based on the proton frequency found by the MR system the MR frequency for ^13C1-alanine was calculated according to the following equation: Frequency ^13C1-alanine=0.25144×[(system frequency proton×1.00021)−0.000397708]
The frequency calculated positioned the MR signal arising from ^13C1-alanine on resonance with ^13C1-lactate on the left and ^13C1-pyruvate and ^13C1-bicarbonate resonating on the right of ^13C1-alanine. An unlocalised MR spectroscopy sequence was run to ensure that the ^13C-MR coil and the system MR frequency had been set up correctly. The ^13C-image location was positioned to cover the myocardium (short axis view) (slice thickness 20 mm, in plane pixel size 7.5×7.5 mm^2). In the reconstruction phase, the image data was zero-filled to result in 3.75×3.75×20 mm^3 resolution. 16 ml of ^13C1-pyruvate (327 mM) was injected (0.22 mmol/kg) during a period of 12 s (1.3 ml/s) i.v. into the front leg and 30 s after the start of the injection (i.e. 18 s after finishing the injection), the chemical shift ^13C-MR sequence was started.
In the reconstruction phase, the matrix was zero-filled to 32×32, a mathematical operation that helps to improve the spatial resolution. The dataset was analysed on the MRI scanner with software provided by the manufacturer. The results are metabolic images for ^13C-pyruvate, ^13C-alanine, ^13C-lactate and ^13C-bicarbonate.

Data set [2] can be described thus: T1 relaxation of 13C-pyruvate in human full blood. In kind it is physicochemical. The settings on record: human full blood at 37° C. An excerpt: The amount of alanine, bicarbonate and lactate is dependent on the metabolic status of the myocardial tissue under investigation.
Setting [3] is: 90 minutes after 15 minute occlusion of the circumflexa.
[4] abbreviates: before vs 90 minutes after 15 minute occlusion.

For the compound `CC(=O)[13C](=O)O` [^13C1-pyruvic acid], the 13C polarisation in data set [1] (Example 4: 20 mM tris(8-carboxy-2,2,6,6-tetra(hydroxyethoxy)methyl-benzo-bis-dithiole-4-yl)methyl sodium salt, calculated from thermal equilibrium and enhanced NMR signal) is recorded as 16%.

In the case of `CC(=O)C(=O)O` [^13C-pyruvate, sodium ^13C1-pyruvate], in the data set with myocardial tissue (setting [3]), the “13C-bicarbonate signal in myocardial tissue at risk (compared to the control)” value is recorded as “strongly reduced” and the “13C-lactate signal in myocardial tissue at risk” value is on record as “positive contrast”. In the data set with myocardial tissue (setting [4]), the “13C-alanine image before and after the ischemic period” value is listed as “No difference”; the “13C-pyruvate image before and after the ischemic period” value was “No difference”. In data set [1] (Example 2: 20 mM radical of Example 1 in 13C1-pyruvic acid, 93.950 GHz, 2 hours, dissolved in NaOH/TRIS, liquid 13C-NMR), this compound showed a 13C polarisation of 19.0%. Also, in data set [1] (Example 3: 15 mM radical of Example 1, 4 hours, dissolved in NaOH/TRIS, 0.5 M pyruvate, radical removed on C18 column, filtered solution), the 13C polarisation was determined as 16.5%. In addition, in data set [2], the T1 relaxation result is “about 42 s”.
